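Grown in 96-well plates, cells were treated for 48 hours with each compound at five concentrations. Insufficient inhibition: endpoint recorded as highest concentration tested. GI50 is the concentration that inhibits growth by half. TGI is the concentration that stops growth completely.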
Experiments:
Assay in all cases: inhibition of tumour cell growth, NCI panel, 48 h
SK-OV-3 ovarian = tested on: SK-OV-3 ovarian
TK-10 renal = tested on: TK-10 renal
NCI-H23 lung = tested on: NCI-H23 lung
NCI-H226 lung = tested on: NCI-H226 lung
OVCAR-3 ovarian = tested on: OVCAR-3 ovarian
MALME-3M melanoma = tested on: MALME-3M melanoma
SF-539 CNS = tested on: SF-539 CNS
KM12 colon = tested on: KM12 colon
DU-145 prostate = tested on: DU-145 prostate
OVCAR-8 ovarian = tested on: OVCAR-8 ovarian

O=C1OCC2=C1C(c1cccc(Cl)c1)c1cc3c(cc1N2CCO)CCC3 (stereo not given)
GI50 (SK-OV-3 ovarian): 41.4 nM
TGI (SK-OV-3 ovarian): 7800 nM
GI50 (TK-10 renal): 46.4 nM
TGI (TK-10 renal): 16300 nM
GI50 (NCI-H23 lung): 48.1 nM
TGI (NCI-H23 lung): 14300 nM
GI50 (NCI-H226 lung): 52.7 nM
TGI (NCI-H226 lung): 912 nM
GI50 (OVCAR-3 ovarian): 25.3 nM
TGI (OVCAR-3 ovarian): 66.6 nM
GI50 (MALME-3M melanoma): 49.4 nM
TGI (MALME-3M melanoma): 22700 nM
GI50 (SF-539 CNS): 36.1 nM
TGI (SF-539 CNS): 7530 nM
GI50 (KM12 colon): 40.2 nM
TGI (KM12 colon): 4050 nM
GI50 (DU-145 prostate): 40.6 nM
TGI (DU-145 prostate): 425 nM
GI50 (OVCAR-8 ovarian): 57.7 nM
TGI (OVCAR-8 ovarian): 2980 nM

COCCn1c2c([n+](Cc3cnccn3)c1C)C(=O)c1ccccc1C2=O
GI50 (SK-OV-3 ovarian): 58.8 nM
TGI (SK-OV-3 ovarian): 573 nM
GI50 (TK-10 renal): 35.2 nM
TGI (TK-10 renal): 222 nM
GI50 (NCI-H23 lung): < 10 nM
TGI (NCI-H23 lung): < 11.3 nM
GI50 (NCI-H226 lung): < 14.3 nM
TGI (NCI-H226 lung): 29.3 nM
GI50 (OVCAR-3 ovarian): < 10 nM
TGI (OVCAR-3 ovarian): < 10 nM
GI50 (MALME-3M melanoma): 126 nM
TGI (MALME-3M melanoma): 316 nM
GI50 (SF-539 CNS): < 10 nM
TGI (SF-539 CNS): 33.7 nM
GI50 (KM12 colon): 37.6 nM
TGI (KM12 colon): 557 nM
GI50 (DU-145 prostate): < 10 nM
TGI (DU-145 prostate): 19 nM
GI50 (OVCAR-8 ovarian): < 10 nM
TGI (OVCAR-8 ovarian): < 10 nM

Nc1cc(N)c2nc(NCCc3ccc(Cl)c(Cl)c3)cnc2c1
GI50 (SK-OV-3 ovarian): 17100 nM
TGI (SK-OV-3 ovarian): 32000 nM
GI50 (TK-10 renal): 18500 nM
TGI (TK-10 renal): 33300 nM
GI50 (NCI-H23 lung): 19900 nM
TGI (NCI-H23 lung): 45700 nM
GI50 (NCI-H226 lung): 21400 nM
TGI (NCI-H226 lung): 47600 nM
GI50 (OVCAR-3 ovarian): 2050 nM
TGI (OVCAR-3 ovarian): 5300 nM
GI50 (MALME-3M melanoma): 3440 nM
TGI (MALME-3M melanoma): 11100 nM
GI50 (SF-539 CNS): 15400 nM
TGI (SF-539 CNS): 29800 nM
GI50 (KM12 colon): 13000 nM
TGI (KM12 colon): 30400 nM
GI50 (DU-145 prostate): 17200 nM
TGI (DU-145 prostate): 31000 nM
GI50 (OVCAR-8 ovarian): 12700 nM
TGI (OVCAR-8 ovarian): 25300 nM

Reference: PubChem BioAssay (NCI)
